Molecules are shown by their SMILES.

From patent US6211196A, “Benzyloxy-substituted, fused N-heterocycles, processes for their preparation, and their use as bradykinin receptor antagonists” (Aventis Pharma Deutschland GmbH, priority 1997, dated 2001) come the findings set out here.

In one test the target is T1, bradykinin β2 receptor (Cavia porcellus, UniProt O70526).
T1 construct: membrane preparations of the guinea-pig ileum; from tissue; host or cells: guinea-pig ileum membranes
T1 sequence (O70526 1-372): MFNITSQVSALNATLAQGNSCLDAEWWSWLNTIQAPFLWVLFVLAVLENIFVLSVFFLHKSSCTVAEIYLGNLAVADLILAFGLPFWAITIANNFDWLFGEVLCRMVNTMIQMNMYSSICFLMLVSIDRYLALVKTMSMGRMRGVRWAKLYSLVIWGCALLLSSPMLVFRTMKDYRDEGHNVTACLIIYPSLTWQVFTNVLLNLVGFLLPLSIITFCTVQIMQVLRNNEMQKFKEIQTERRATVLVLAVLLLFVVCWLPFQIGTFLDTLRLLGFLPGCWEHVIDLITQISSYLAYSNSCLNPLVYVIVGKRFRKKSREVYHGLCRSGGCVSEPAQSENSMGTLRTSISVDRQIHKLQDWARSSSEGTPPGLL
The experiment in a line: Ki on membrane preparations of guinea-pig ileum, 3H-bradykinin competition. Format: binding. The conditions noted are these: 3H-bradykinin 0.25 to 0.3 nmol/l, guinea-pig ileum membranes, room temperature, 60 minutes, pH 6.8. As to the method:
B. Innis et al., Proc. Natl. Acad. Sci. USA, 17 (1981) 2630) according to the following procedure: […] Ligand: ^3 H-BRADYKININ (from NEN Du Pont) Both buffers are adjusted to pH 6.8 using 5 molar NaOH. Guinea-pig ilea are grossly freed from intestinal contents by careful brushing and cleaned in 0.9% strength NaCl solution. The pieces of ilea about 2 cm long are transferred to ice-cold TES buffer (about 1 g/10 ml) and homogenized in an ice bath for about 30 sec. using an Ultraturrax. The homogenate is then filtered through three layers of gauze, and the filtrate is centrifuged at 50,000 g/10 minutes. The supernatant is discarded, and the pellet is rehomogenized in the same volume of TES buffer and centrifuged again at 50,000 g/10 minutes. The pellet is rehomogenized in incubation buffer (about 1 g/5 ml) and frozen at -70° C. in cryotubes in 2 ml portions. The protein concentration of the finished membrane suspension is determined according to LOWRY and should be about 15 μg/100 μl. All incubations are carried out at room temperature for 60 minutes on microtiter plates (96×300 μl) in a 200 μl volume. All mixtures are in incubation buffer. To this end, 50 μl of the radioligand, 50 μl of the preparation to be tested, and 100 μl of the membrane suspension are pipetted into the hollows of the microtiter plate in succession. Nonspecific binding: for each concentration of the radioactive ligand, the nonspecific binding must be determined. […] In this test, HOE 140 (10 μmol/l) is used. […] The reaction is started by the addition of 100 μl of the membrane suspension. Here a fixed quantity of the radioactive ligand (0.25 to 0.3 nmol/l of ^3 H-bradykinin) and various concentrations of the unlabeled agonists or antagonists are employed. 50 μl of the preparations or standard to be tested in the concentrations 10^-5 to 10^-10 mol/l are added to 50 μl in each case of the ^3 H-bradykinin solution, and the reaction is started by addition of 100 μl of membrane suspension. Triplicate determinations also are carried out in this test, and three samples are incubated with 10 μmol/l of HOE 140 to determine the nonspecific binding. The preparations to be tested for competition are completely dissolved in a concentration of 1 mmol/l in dimethyl sulfoxide (DMSO), and then further diluted with DMSO. This solution is then diluted 1:25 with incubation buffer. […] The still moist filters are punched out into mini-scintillation tubes, and these are filled with 3 ml of scintillator. After a soaking time of about 12 hours, the samples are briefly shaken and measured in a beta-counter. […] If a displacement of the radioligand of 50% or more is detectable at the highest concentration, a complete analysis (competition experiment) is carried out using at least 8 concentrations. Assessment is carried out by means of the LIGAND program package (McPherson, Minson & Rodbard, marketed by: Elsevier-BIOSOFT), which carries out the necessary calculations for the determination of IC50 and Ki values. This program moreover carries out graphic presentations of the saturation or displacement curves as well as the SCATCHARD plot, HILL plot, or HOFSTEE plot.

Test [1] concerns bradykinin-induced contraction of the guinea-pig ileum. The experiment in a line: bradykinin-induced contraction of the guinea-pig ileum. The conditions noted are these: isolated guinea-pig ileum, bradykinin 4×10^-8 mol/l, antagonist action time 10 min, 37° C. The source says:
In addition, for the determination of the bradykinin-antagonistic action of the compounds of fomula (I), their effect on the bradykinin-induced contraction of the guinea-pig ileum can be measured according to the following protocol:
Guinea-pigs about 300 g in weight (Morioth strain, .male..female.) are killed by a blow to the neck and exsanguinated. The ileum is dissected out in a length of about 20 cm, rinsed with Tyrode solution (Record Syringe), and thus freed from the intestinal contents. It is then divided into sections 1.5 cm long. These are fixed in organ baths of 10 ml capacity, which are filled with Tyrode solution, and connected to extension-measuring strips (isometric contraction measurement). The preload is 1 g. The Tyrode solution is warmed to 37° C. in a water bath and bubbled through with compressed air. After an interval of 30 min, the experiment is begun. After recording the biological zero line, bradykinin in a final concentration of 4×10^-8 mol/l is added per organ bath, and the […] is recorded. Rinsing with Tyrode solution is then carried out for three min., and after a break of 20 min., bradykinin is again added. The maximum of the contraction is achieved (control). Rinse again, break. […] The experiment is recorded on a pen recorder.
Thus, the compounds of Examples 6 and 20, for example, have the following IC50 values determined by the above procedure: […]

Regarding `CCNC(=O)NCC(=O)N(C)c1ccc(Cl)c(COc2cccc3ccc(C)nc23)c1C#N` [Example 1, 8-[6-Chloro-2-cyano-3-(N-ethylaminocarbonylglycyl-N-methyl)amino-benzyloxy]-2-methylquinoline], at bradykinin β2 receptor, the Ki is 8.3 nM. `Cc1ccc2cccc(OCc3c(Cl)ccc(N(C)C(=O)CNC(=O)NCCCCN)c3C#N)c2n1` [Example 6, 8-[6-Chloro-2-cyano-3-[N-(4-aminobutylaminocarbonylglycyl-N-methyl]aminobenzyloxy]-2-methylquinoline bistrifluoroacetate]: the Ki at bradykinin β2 receptor was found to be 0.1 nM. The same molecule yielded an IC50 in test [1] of 350 nM. For `CCNC(=O)NCC(=O)N(C)c1ccc(OC)c(COc2cccc3ccc(C)nc23)c1C#N` [Example 9, N-[2-Cyano-4-methoxy-3-(2-methylquinolin-8-yloxymethyl)phenyl]-2-(3-ethylureido)-N-methylacetamide], the affinity at bradykinin β2 receptor, expressed as Ki, was 6 nM. The same measure, in the same setting: then `COc1c(N(C)C(=O)CNC(=O)/C=C/c2ccc(C(F)(F)F)cc2)ccc(SC)c1COc1cccc2ccc(C)nc12` [Example 16], with 17.4 nM. For the molecule `COC(=O)CCCCC(=O)NCC(=O)N(C)c1ccc(OC)c(COc2cccc3ccc(C)nc23)c1SC` [Example 20, 8-[6-Methoxy-2-methylthio-3-(N-5-methoxycarbonylpentanoylglycyl-N-methyl)aminobenzyloxy]-2-methylquinoline], on bradykinin β2 receptor, the Ki was found to be 5.4 nM. Also, in test [1], the 50% inhibitory concentration (IC50) came out at 56 nM. The molecule `CSc1ccc(N(C)C(=O)CNC(=O)/C=C/c2ccc(NC(C)=O)nc2)c(SC)c1COc1cccc2ccc(C)nc12` [Example 24, 8-[2,6-Dithiomethyl-3-(3-(6-acetylaminopyridin-3-yl)acryloylglycyl-N-methyl)aminobenzyloxy]-2-methylquinoline] had a Ki on bradykinin β2 receptor of 1 nM.

For orientation: Ki means a measure of affinity in units of concentration, obtained from inhibition or displacement. A low value points to tighter binding. By IC50 is commonly meant the concentration at which inhibition is half-maximal. Low values mean inhibition by little substance, high ones a need for much substance.
